From patent US11761045B2, “Splice variants associated with neomorphic SF3B1 mutants” (Eisai R&D Management Co., Ltd., priority 2015, dated 2023)

Experiments:
[1] = test system: Nalm-6 SF3B1^K700E xenograft; experiment: Antitumor activity in subcutaneous Nalm-6 SF3B1^K700E xenograft model; assay type: in vivo, CB17-SCID mice
Experimental: SF3B1 modulator E7107 was tested for antitumor activity in vivo by determining the effect of E7107 in a subcutaneous model of Nalm-6 SF3B1^K700E. […] After this dosing, the animals were monitored until they reached either of the following endpoints: 1) excessive tumor volume measured three times a week (tumor volume calculated by using the ellipsoid formula: […]), or 2) development of any health problem such as paralysis or excessive body weight loss. Partial regression (PR) and complete regression (CR) are defined as 3 consecutive tumor measurements <50% and <30% of starting volume respectively.

[2] = test system: neomorphic SF3B1^MUT CLL patient samples; experiment: Splicing inhibition in CLL patient samples in vitro by RNA-Seq; assay type: cell-based, human; settings: 10 nM, 6 hours
Experimental: (§1) The ability of E7107 to inhibit splicing in CLL patient samples in vitro was determined by isolating RNA from samples of E7107-treated patient cells treated for 6 hours with E7107 at 10 nM and performing RNA-Seq analysis. To do so, cells were washed with PBS after treatment with E7107, and RNA was isolated using PureLink (Life Technology) as reported in the manufacturer's manual. cDNA library preparation, sequencing and raw read filtering was performed as described in Ren, S. et al. “RNA-Seq analysis of prostate cancer in the Chinese population identifies recurrent gene fusions, cancer-associated long noncoding RNAs and aberrant alternative splicings.” Cell Res 22, 806-821, doi:10.1038/cr.2012.30 (2012).

[3] = test system: SF3B1^WT CLL patient samples; experiment: as above; assay type: cell-based, human; settings: 10 nM, 6 hours
Experimental: as §1

[4] = target: SF3B1^K700E (Homo sapiens, UniProt O75533+Q7RTV0, K700E); experiment: In vitro splicing assay (IVS), Ad2 pre-mRNA substrate, nuclear extracts; assay type: biochemical; design: expressed in transfected cells; host or cells: nuclear extract of 293F cells transfected with pFLAG-CMV-2-SF3B1 K700E (the same assay was also run with Nalm-6 SF3B1 K700E nuclear extract); settings: nuclear extracts from Nalm-6 SF3B1^K700E cells or 293F cells expressing Flag-tag SF3B1^K700E
Experimental: E7107 is a small-molecule compound that inhibits splicing by targeting the U2 snRNP-associated complex SF3B (Kotake, Y. et al. “Splicing factor SF3b as a target of the antitumor natural product pladienolide.” Nat Chem Biol 3, 570-575, doi:10.1038/nchembio.2007.16 [2007]).
Nuclear extracts were prepared from 293F cells transfected with pFLAG-CMV-2-SF3B1 plasmids, or from isogenic Nalm-6 cells (SBH Sciences). The plasmids were generated by cloning the mxSF3B1 gene into the HindIII and KpnI sites of pFLAG-CMV2 (Sigma), and the mutations mxSF3B1^K700E, mxsF3B1^R1074H and mxSF3B1^K700E-R1074H were introduced using […]. Cell pellets were resuspended in hypotonic buffer (10 mM HEPES pH 7.9, 1.5 mM MgCl2, 10 mM KCl, 0.2 mM PMSF, and 0.5 mM DTT; for Nalm-6 cells, 40 mM KCl was used). The suspension was brought up to a total of five packed cell volumes (PCV). After centrifugation, the supernatant was discarded, and the cells were brought up to 3 PCV with hypotonic buffer, and incubated on ice for 10 minutes. Cells were lysed using a dounce homogenizer and then centrifuged. […] Protein concentration was determined using NanoDrop 8000 UV-Vis spectrophotometer (Thermo Scientific). […]

CC[C@H](O)[C@@H](C)[C@H]1O[C@@H]1C[C@@](C)(O)/C=C/C=C(\C)[C@H]1OC(=O)C[C@H](O)CC[C@@](C)(O)[C@@H](OC(=O)N2CCN(C3CCCCCC3)CC2)/C=C/[C@@H]1C [Compound E7107]
complete regression (CR) ([1]; 1.25 mg/kg IV QDx5, n=10): all animals (n=10) reached complete regression (CR)
complete regressions (CRs), animals ([1]; 2.5 mg/kg IV QDx5, by day 9): 10/10
complete regression (CR) ([1]; 5 mg/kg IV QDx5): all Nalm-6 SF3B1^K700E xenograft animals reached CR as early as 9 days post treatment
mean survival time ([1]; 5 mg/kg IV QDx5): over 250 days
tolerability of dose levels ([1]; 1.25, 2.5 and 5 mg/kg IV QDx5): well tolerated
expression of canonical splice isoforms [2]: inhibited the expression of canonical splice isoforms
aberrant splicing ([2]; all samples carrying neomorphic SF3B1 mutations): able to modulate aberrant splicing
expression of canonical splice isoforms [3]: inhibited the expression of canonical splice isoforms
inhibition of splicing of Ad2 pre-mRNA in nuclear extracts [4]: able to inhibit splicing
